Data on twelve compounds can be found in patent US20240383869A1, “ARYLACETYL INHIBITORS OF TG2 AND USES THEREOF” (UNIVERSITY OF OTTAWA, priority 2021, published 2024).

In general, Ki refers to the equilibrium dissociation constant of an inhibitor or competing ligand from its target. Broadly, the kinact is the rate constant of inactivation at saturating inhibitor.

Read-outs that look alike come from different tables or passages of the source. Where a SMILES comes first, the peptide text is derived from it. [ ]: non-standard residue; d: D form. The star is where a group is joined. DON = [N-]=[N+]=CC(=O)CC[C@H](N)C(=O)O; Cbz = O=C(OCc1ccccc1)*

Assay [1] deals with T1, hTG2 (Homo sapiens, UniProt P21980).
T1 sequence (P21980 1-687): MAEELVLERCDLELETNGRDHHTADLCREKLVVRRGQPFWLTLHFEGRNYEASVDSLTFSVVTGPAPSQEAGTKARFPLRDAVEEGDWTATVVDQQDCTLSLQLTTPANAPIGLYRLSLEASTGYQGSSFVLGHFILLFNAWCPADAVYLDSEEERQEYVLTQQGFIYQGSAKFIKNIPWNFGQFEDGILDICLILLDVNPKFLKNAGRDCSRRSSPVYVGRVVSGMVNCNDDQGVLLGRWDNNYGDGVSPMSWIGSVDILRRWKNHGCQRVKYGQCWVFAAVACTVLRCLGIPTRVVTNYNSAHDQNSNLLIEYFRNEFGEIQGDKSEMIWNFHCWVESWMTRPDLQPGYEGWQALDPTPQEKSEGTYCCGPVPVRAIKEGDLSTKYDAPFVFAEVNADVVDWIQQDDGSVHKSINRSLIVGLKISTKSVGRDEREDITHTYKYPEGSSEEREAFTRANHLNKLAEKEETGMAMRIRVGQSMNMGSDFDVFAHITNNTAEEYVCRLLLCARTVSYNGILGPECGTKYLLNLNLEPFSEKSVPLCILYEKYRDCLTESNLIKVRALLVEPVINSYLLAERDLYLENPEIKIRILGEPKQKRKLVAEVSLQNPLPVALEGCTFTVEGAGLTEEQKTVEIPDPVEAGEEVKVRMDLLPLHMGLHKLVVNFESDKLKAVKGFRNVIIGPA
The assay is described as follows: biochemical. The conditions noted are these: fit to saturation kinetics model, 25° C., pH 6.95, 100 μM AL5; for Ki: read-out: KI (converted); for kinact: read-out: kinact (converted); for kinact/KI: read-out: kinact/KI (converted). How it is done: The ability of the compounds to inhibit TG2 transamidase activity and the kinetics of TG2 inhibition were investigated using a colorimetric activity assay, as follows:
Colorimetric transamidase activity assay. The activities of hTG1, hTG2 and hTG6 were measured via a colorimetric assay using the chromogenic substrate Cbz-Glu(γ-p-nitrophenyl ester)Gly (AL5), as described (Leblanc, A. et al., “Kinetic studies of guinea pig liver transglutaminase reveal a general-base-catalyzed deacylation mechanism.” Biochemistry 2001, 40 (28), 8335-8342). Assays were conducted at 25° C. in 50 mM MOPS buffer (pH 6.95) containing 7.5 mM CaCl2. […] The substrate AL5 was prepared in as a stock solution in DMSO such that the final concentration of this co-solvent was constant at 2.5% v/v. Stock solutions of the inhibitors were made in water ranging in concentration from 100-500 μM. The reaction was initiated with the addition of enzyme, 0.10 μM hTG1, 0.25 μM hTG2 (4.6 mU/mL) or 0.32 μM hTG6. Formation of hydrolysis product, p-nitrophenolate (pNP), was monitored at 405 nm in a polystyrene 96-well microplate using a BioTek Synergy 4 plate reader. The observed first-order rate constants of inactivation (kobs) were determined via non-linear regression fit to a mono-exponential model (Eqn 1) of absorbance versus time curves. These rate constants (kobs) were in turn fit to a saturation kinetics model (Eqn 2), by non-linear regression, providing the kinetic parameters kinact and KI, as previously described by Stone and Hofsteenge (Stone, S. R. and Hofsteenge, J., “Specificity of activated human protein C.” Biochem. J. 1985, 230 (2), 497-502). […] Experiments were completed in triplicate at minimum.
Fitting of this time-dependent inactivation to a monoexponential equation gave first-order rate constants, kobs. […] In some cases, the kinetic data were fitted to a linear double reciprocal equation.

Assay [2] relates to SCC-13 cells. Kind of assay: ECS cell invasion through Matrigel (Transwell). In kind it is cell-based. The conditions noted are these: 0-100 μM inhibitor, 18 h, read-out: EC50 for inhibition of ECS invasion. How it is done:
One well-known property of tumour-initiating cells associated with cancer metastasis is the enhanced ability to invade Matrigel (collagen). For example, it has been shown that epidermal cancer stem (ECS) cells invade Matrigel more efficiently than non-stem cancer cells, and that these properties are associated with enhanced tumour formation (Adhikary, G. et al., PLoS ONE 2013, 8, e84324. https://doi.org/10.1371/journal.pone.0084324). We have shown previously that ˜20 μM of NC9 and 3.9 μM of VA4 can reduce ECS cell invasion through Matrigel by ˜50% relative to vehicle-treated cells (Akbar, A. et al., J. Med. Chem. 2017, 60, 7910-7927. https://doi.org/10.1021/acs.jmedchem.7b01070; Fisher, M. L. et al., Oncotarget 2015, 6, 20525-20539. https://doi.org/10.18632/oncotarget.3890).
Materials and Methods for cell invasion data. To measure cell invasion, Matrigel (Corning, catalogue no. 354234) was diluted to 250 μg/mL and 120 μL was added to the upper chambers of a Transwell plate (Corning, no. 353097, 1-cm diameter, 8-μm pore size) and allowed to solidify. SCC-13 cells were suspended in spheroid medium (Fisher, M. L. et al., Cancer Res. 2016, 76, 7265-7275. https://doi.org/10.1158/0008-5472.can-16-2032; Adhikary, G. et al., Carcinogenesis 2015, 36, 800-810. https://doi.org/10.1093/carcin/bgv064) containing 1% foetal calf serum (FCS), and 20,000 cells were plated into each upper chamber atop the Matrigel. The bottom chamber contained spheroid medium supplemented with 10% FCS and 0-100 μM of inhibitor. After incubation for 18 h in a 37° C. incubator, cells in the top chamber were removed with a swab and cells on the lower surface of the membrane were fixed with 4% paraformaldehyde and the nuclei were stained with 4′,6-diamidino-2-phenylindole. Cell number was counted in multiple fields (n=4) using a fluorescence microscope, normalized with respect to the number counted in the presence of vehicle only, and expressed as mean±standard deviation.

Assay [3] concerns the target T1, hTG2. Kind of assay: In vitro GTP binding assay (BODIPY GTP-γ-S fluorescence). The conditions noted are these: inhibitor 2×KI, 30 minutes at 25° C.; 3 μM BODIPY GTP-γ-S. How it is done:
Previously we proposed a mechanism of action for the NC9, VA4 and AA9 inhibitors based on their ability to react covalently with the open conformation of TG2, locking the enzyme in that conformation and thereby abolishing the enzyme's ability to bind GTP and act as a G-protein. […] We used the same in vitro GTP binding assay to measure the ability of representative phenylacetyl inhibitors 67 and 72 to abolish GTP binding, as follows:
In vitro GTP binding assay. GTP binding was measured using a method similar to that reported previously (McEwen, D. P. et al., “Fluorescent BODIPY-GTP analogs: Real-time measurement of nucleotide binding to G proteins.” Anal. Biochem. 2001, 291 (1), 109-117). […] The buffer was then exchanged to 100 mM MOPS (pH=7.0), 1 mM EGTA and 5 mM MgCl2 to remove calcium via dialysis using a 10-kDa molecular weight cut off membrane. The fluorescent GTP analog was added to give a final concentration of 3.0 μM and fluorescence was measured on a microplate reader after 10 minutes of incubation (Ex/Em: 490/520 nm).

The subject of assay [4] is glioblastoma multiforme (GBM) cell lines. Particulars: Zhang et al. 2013; cited from earlier work.
The test system of assay [5] is TG2 relative to other human transglutaminases. The conditions noted are these: shown previously (Akbar et al. 2017); cited from earlier work.
Assay [6] addresses T1, hTG2. The conditions noted are these: shown previously; cited from earlier work.
The test system of assay [7] is SCC-13 cells. The conditions noted are these: shown previously; read-out: concentration reducing ECS cell invasion through Matrigel by ~50% relative to vehicle-treated cells; cited from earlier work.

With `C=CC(=O)NCCCC[C@H](NC(=O)Cc1ccccc1Cl)C(=O)N1CCN(C(=O)c2cccc3ccccc23)CC1` [Inhibitor 76, (S)-N-(6-(4-(1-naphthoyl)piperazin-1-yl)-5-(2-(2-chlorophenyl)acetamido)-6-oxohexyl)acrylamide], on hTG2 [1], the inhibition constant Ki is 18 ± 6.9 µM, the kinact is 0.0883 s⁻¹ and the kinact/KI was 4920 M⁻¹ s⁻¹. Also, the EC50 in the assay on SCC-13 cells [2] was determined as 92 ± 2 µM.

Consider `C=CC(=O)NCCCC[C@H](NC(=O)Cc1ccccc1)C(=O)N1CCN(C(=O)c2cccc3ccccc23)CC1` [Inhibitor 67, (S)-N-(6-(4-(1-naphthoyl)piperazin-1-yl)-6-oxo-5-(2-phenylacetamido)hexyl)acrylamide], for which the “inhibition of GTP binding of hTG2” value at hTG2 [3] is reported as “abolished the GTP binding ability”.

For the compound `CN(C)c1cccc2c(S(=O)(=O)NCCCCCN)cccc12` [monodansylcadaverine], the “proliferation of GBM cell lines” value in assay [4] is reported as “reduce proliferation in two out of three”.

On to `COC(=O)[C@H](CC(C)C)NC(=O)[C@@H]1CCCN1C(=O)[C@@H](NC(=O)[C@H](CCC(=O)C=[N+]=[N-])NC(=O)OCc1ccccc1)C(C)C` [Z-DON] (Cbz-[DON]VPL-OMe), for which the “proliferation of GBM cell lines” value in assay [4] is given as “reduce proliferation in two out of three”.

`C=CC(=O)NCCCC[C@H](NC(=O)Cc1ccccc1Br)C(=O)N1CCN(C(=O)c2cccc3ccccc23)CC1` [Inhibitor 77, (S)-N-(6-(4-(1-naphthoyl)piperazin-1-yl)-5-(2-(2-bromophenyl)acetamido)-6-oxohexyl)acrylamide]: on hTG2 [1], the inhibition constant Ki is 9.8 ± 1.5 µM, the inactivation rate constant (kinact) was 0.0517 s⁻¹ and the kinact/KI is 5170 M⁻¹ s⁻¹. Further, in the assay on SCC-13 cells [2], the EC50 is 94 ± 2 µM.

As to `C=CC(=O)NCCCC[C@H](NC(=O)OCc1ccccc1)C(=O)N1CCN(S(=O)(=O)c2cccc3c(N(C)C)cccc23)CC1` [VA4], the “selectivity for TG2 compared to the other major transglutaminase isozymes” value in assay [5] is reported as “good selectivity for TG2”. Further, the “suppression of TG2 binding of GTP-γ-S-FL BODIPY” value on hTG2 [6] is “suppress the ability of TG2 to bind GTP-γ-S-FL BODIPY”. For the same compound, the EC50 in the assay with SCC-13 cells [7] was 3.9 µM.

Consider `C=CC(=O)NCCCC[C@H](NC(=O)OCc1ccccc1)C(=O)NCCOCCOCCNS(=O)(=O)c1cccc2c(N(C)C)cccc12` [NC9], for which, in assay [5], the “selectivity for TG2 compared to the other major transglutaminase isozymes” value is “good selectivity for TG2”. Besides, the EC50 with SCC-13 cells [7] was around 20 µM.

As to `C=CC(=O)NCCCC[C@H](NC(=O)C1C2CC3CC(C2)CC1C3)C(=O)N1CCN(C(=O)c2cccc3ccccc23)CC1` (stereo partly drawn) [Inhibitor 33, (1S,3S,5S,7S)-N-((S)-1-(4-(1-naphthoyl)piperazin-1-yl)-6-acrylamido-1-oxohexan-2-yl)adamantane-2-carboxamide], at hTG2 [1], the inhibition constant Ki was 15.3 ± 0.3 µM, the kinact was 0.00383 s⁻¹ and the kinact/KI is 248 M⁻¹ s⁻¹.

For the compound `C=CC(=O)NCCCC[C@H](NC(=O)C1CC1)C(=O)N1CCN(C(=O)c2cccc3ccccc23)CC1` [Inhibitor 36, (S)-N-(1-(4-(1-naphthoyl)piperazin-1-yl)-6-acrylamido-1-oxohexan-2-yl)cyclopropanecarboxamide], at hTG2 [1], the inhibitory constant (Ki) is 10.6 ± 3.6 µM, the inactivation rate constant (kinact) was 0.017 s⁻¹ and the kinact/KI is 1610 M⁻¹ s⁻¹.

For the compound `C=CC(=O)NCCCC[C@H](NC(=O)CCc1ccccc1)C(=O)N1CCN(C(=O)c2cccc3ccccc23)CC1` [Inhibitor 68, (S)-N-(6-(4-(1-naphthoyl)piperazin-1-yl)-6-oxo-5-(3-phenylpropanamido)hexyl)acrylamide], at hTG2 [1], the inhibitory constant (Ki) was 2.8 ± 0.3 µM, the inactivation rate constant (kinact) is 0.01 s⁻¹ and the kinact/KI is 3570 M⁻¹ s⁻¹.

Take `C=CC(=O)NCCCC[C@H](NS(=O)(=O)CC)C(=O)N1CCN(C(=O)c2cccc3ccccc23)CC1` [Inhibitor 90, (S)-N-(6-(4-(1-naphthoyl)piperazin-1-yl)-5-(ethylsulfonamido)-6-oxohexyl)acrylamide]: on hTG2 [1], the Ki is 26.6 ± 1.1 µM, the maximal inactivation rate constant (kinact) was 0.0138 s⁻¹ and the kinact/KI was 518 M⁻¹ s⁻¹.

On to `C=CC(=O)NCCCC[C@H](NC(=O)Cc1cccc(Cl)c1)C(=O)N1CCN(C(=O)c2cccc3ccccc23)CC1` [Inhibitor 73, (S)-N-(6-(4-(1-naphthoyl)piperazin-1-yl)-5-(2-(3-chlorophenyl)acetamido)-6-oxohexyl)acrylamide], for which, at hTG2 [1], the Ki is 1 ± 0.5 µM, the kinact is 0.005 s⁻¹ and the kinact/KI was 4830 M⁻¹ s⁻¹.
